Data on seven compounds can be found in patent US9133147B2, “Thrombin inhibitors” (Merck Sharp & Dohme Corp., priority 2012, dated 2015).

Molecules are shown by their SMILES. Structures can show the parent of a compound that is named as a salt.

In the test the target is human α-thrombin (Homo sapiens, UniProt P00734). In words: In vitro assay for determining proteinase inhibition (thrombin Ki). Format: biochemical. To be noted: 25° C., 0.05 M TRIS buffer pH 7.4, 0.15 M NaCl, 0.1% PEG; sar-PR-pna or Z-GPR-afc substrate; competitive inhibition assumed. The source says:
Unless otherwise stated, all NMR determinations were made using 400 MHz field strength. Ki data was obtained according to the procedure described in Lewis, et al. Thromb. Res. 1993, 70, 173 (assays of human-thrombin and human trypsin), and Lewis, et al. Thromb. Haemostasis 1995, 74, 1107-1112.
Relevant in vitro assays are referenced in Morrissette, et al., Bioorg. Med. Chem. Lett. 2004, 14, 4161-4164 and described in Lewis, et al. Thromb. Res. 1993, 70, 173 (assays of human α-thrombin and human trypsin), and Lewis, et al. Thromb. Haemostasis 1995, 74, 1107-1112. The assays were carried out at 25° C. in 0.05 M TRIS buffer pH 7.4, 0.15 M NaCl, 0.1% PEG. Trypsin assays also contained 1 mM CaCl2. In assays wherein rates of hydrolysis of a p-nitroanilide (pna) substrate were determined, a Thermomax 96-well plate reader was used was used to measure (at 405 nm) the time dependent appearance of p-nitroaniline. sar-PR-pna was used to assay human α-thrombin (Km=125 μM) and bovine trypsin (Km=125 μM). p-Nitroanilide substrate concentration was determined from measurements of absorbance at 342 nm using an extinction coefficient of 8270 cm^−1M^−1.
In certain studies with potent inhibitors (Ki<10 nM) where the degree of inhibition of thrombin was high, a more sensitive activity assay was employed. In this assay the rate of thrombin catalyzed hydrolysis of the fluorogenic substrate benzyloxycarbonyl-Gly-Pro-Arg-7-amino-4-trifluoromethylcoumarin (Z-GPR-afc, Lewis S. D. et al. (1998) J. Biol. Chem. 273, pp. 4843-4854) (Km=27 μM) was determined from the increase in fluorescence at 500 nm (excitation at 400 nm) associated with production of 7-amino-4-trifluoromethyl coumarin. Concentrations of stock solutions of Z-GPR-afc were determined from measurements of absorbance at 380 nm of the 7-amino-4-trifluoromethyl coumarin produced upon complete hydrolysis of an aliquot of the stock solution by thrombin.
Activity assays were performed by diluting a stock solution of substrate at least tenfold to a final concentration ≦0.1 Km into a solution containing enzyme or enzyme equilibrated with inhibitor. Times required to achieve equilibration between enzyme and inhibitor were determined in control experiments. Initial velocities of product formation in the absence (VO) or presence of inhibitor (Vi) were measured. Assuming competitive inhibition, and that unity is negligible compared Km/[S], [I]/e, and [I]/e (where [S], [I], and e respectively represent the total concentrations, of substrate, inhibitor and enzyme), the equilibrium constant (Ki) for dissociation of the inhibitor from the enzyme can be obtained from the dependence of VO/Vi on [I] shown in the following equation. VO/Vi=1+[I]/Ki
Compound `CC(C)(C)[C@@H](O)C(=O)N1CC[S+]([O-])C[C@H]1C(=O)NCc1cc(Cl)ccc1CN` (stereo partly drawn) [Example 6, (3R)—N-[2-(aminomethyl)-5-chlorobenzyl]-4-[(2R)-2-hydroxy-3,3-dimethylbutanoyl]thiomorpholine-3-carboxamide 1-oxide trifluoroacetate (salt)] yielded a Ki of 0.078 µM.

`CN1CCN(C(=O)[C@H](O)C(C)(C)C)[C@H](C(=O)NCc2cc(Cl)ccc2CN)C1` [Example 3, (2S)—N-[2-(aminomethyl)-5-chlorobenzyl]-1-[(2R)-2-hydroxy-3,3-dimethylbutanoyl]-4-methylpiperazine-2-carboxamide trifluoroacetate salt] displayed a Ki of 0.034 µM.

Regarding `CC(C)(C)[C@@H](O)C(=O)N1CCS(=O)(=O)C[C@H]1C(=O)NCc1cc(Cl)ccc1CN` [Example 7, (3R)—N-[2-(aminomethyl)-5-chlorobenzyl]-4-[(2R)-2-hydroxy-3,3-dimethylbutanoyl]thiomorpholine-3-carboxamide 1,1-dioxide trifluoroacetate salt], the Ki was 0.052 µM. This Ki lies about 1.5-fold higher than the previous one.

In turn, `CC(C)(C)[C@@H](O)C(=O)N1CCNC[C@H]1C(=O)NCc1cc(Cl)ccc1CN` [Example 2, (2S)—N-[2-(aminomethyl)-5-chlorobenzyl]-1-[(2R)-2-hydroxy-3,3-dimethylbutanoyl]piperazine-2-carboxamide bis trifluoroacetate salt] showed an inhibition constant Ki of 0.063 µM.

Compound `CC(C)(C)[C@@H](O)C(=O)N1CCSC[C@H]1C(=O)NCc1cc(Cl)ccc1CN` [Example 5, (3R)—N-[2-(aminomethyl)-5-chlorobenzyl]-4-[(2R)-2-hydroxy-3,3-dimethylbutanoyl]thiomorpholine-3-carboxamide trifluoroacetate salt] showed a Ki of 0.0011 µM.

Consider `CC(C)(C)[C@@H](O)C(=O)N1CCOC[C@H]1C(=O)NCc1cc(Cl)ccc1CN` [Example 4, (3S)—N-[2-(aminomethyl)-5-chlorobenzyl]-4-[(2R)-2-hydroxy-3,3-dimethylbutanoyl]morpholine-3-carboxamide trifluoroacetate salt], for which the Ki was determined as 0.032 µM.

Turning to `CC(C)(C)[C@@H](O)C(=O)N1CCCC[C@H]1C(=O)NCc1cc(Cl)ccc1CN` [Example 1, (2S)—N-[2-(aminomethyl)-5-chlorobenzyl]-1-[(2R)-2-hydroxy-3,3-dimethylbutanoyl]piperidine-2-carboxamide trifluoroacetate salt], the Ki was determined as 0.0073 µM. This Ki lies about 4.4-fold lower than the previous one.
